Results as given in BindingDB's records for doi:10.1016/S1074-5521(00)00052-1 (Northwestern University, 2001).

Molecular target: Beta-lactamase (Escherichia coli (strain K12), UniProt P00811)
Assay: Enzyme Inhibition Assay
Settings: pH 7
Excerpt: Enzyme inhibition assay using AmpC or TEM-1 from escherichia coli.

Beta-lactamase, sequence (P00811 whole entry): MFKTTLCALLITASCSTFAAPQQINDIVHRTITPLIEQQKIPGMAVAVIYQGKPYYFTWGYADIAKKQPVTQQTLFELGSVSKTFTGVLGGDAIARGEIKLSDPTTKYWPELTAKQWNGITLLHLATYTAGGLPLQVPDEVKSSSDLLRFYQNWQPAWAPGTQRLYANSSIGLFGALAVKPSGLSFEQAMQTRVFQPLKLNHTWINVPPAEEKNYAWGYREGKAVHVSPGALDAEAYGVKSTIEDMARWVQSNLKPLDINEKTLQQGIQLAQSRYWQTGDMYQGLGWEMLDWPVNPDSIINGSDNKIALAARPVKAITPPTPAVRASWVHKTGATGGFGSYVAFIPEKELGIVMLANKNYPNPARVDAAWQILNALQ

Structure (SMILES)	Ki
O=CNCB(O)O [Acylglycineboronic acid, 3]	4.8 µM
CC(=O)NCB(O)O [Acylglycineboronic acid, 5]	18.5 µM
O=C(Cc1ccccc1)NCB(O)O [Acylglycineboronic acid, 6]	0.57 µM
O=C(COc1ccccc1)NCB(O)O [Acylglycineboronic acid, 7]	0.7 µM
CC(Oc1ccccc1)C(=O)NCB(O)O (stereo unspecified) [Acylglycineboronic acid, 8]	0.3 µM
CCOc1ccc2ccccc2c1C(=O)NCB(O)O [Acylglycineboronic acid, 10]	0.033 µM
O=C(CCl)NCB(O)O [Acylglycineboronic acid, 12]	0.24 µM
O=C(CSc1ccncc1)NCB(O)O [Acylglycineboronic acid, 13]	0.175 µM
OB(O)O [Boric acid]	2800 µM
CB(O)O [Methylboronic Acid]	1000 µM
O=C(Cc1cccs1)NCB(O)O [N-2-THIOPHEN-2-YL-ACETAMIDE BORONIC ACID]	0.32 µM
